Reference: ChEMBL document CHEMBL5143740, “Discovery of Novel Phosphoinositide-3-Kinase α Inhibitors with High Selectivity, Excellent Bioavailability, and Long-Acting Efficacy for Gastric Cancer” (J Med Chem, 2022)
Activity calls are given as the source filed them. The calls are words filed in the database; no cut-off is given here.

Experiments:
[1] = biological target: Phosphatidylinositol 4,5-bisphosphate 3-kinase catalytic subunit beta isoform (Homo sapiens, UniProt P42338); assay: Inhibition of PI3Kbeta (unknown origin) in presence of [33P]-ATP incubated for 2 hrs by hotspot kinase assay
Homo sapiens [2] = organism: Homo sapiens; assay: Selectivity index, ratio of IC50 for inhibition of PI3Kbeta (unknown origin) to IC50 for inhibition of PI3Kalpha (unknown origin)
Homo sapiens [3] = organism: Homo sapiens; assay: Selectivity index, ratio of IC50 for inhibition of PI3Kdelta (unknown origin) to IC50 for inhibition of PI3Kalpha (unknown origin)
MGC-803 [4] = assay: Antiproliferative activity against human MGC-803 cells assessed as inhibition of cell growth incubated for 72 hrs by CCK8 assay; type: functional, cell-based; settings: MGC-803, 72 h
PC-3 = assay: Antiproliferative activity against human PC-3 cells assessed as inhibition of cell growth incubated for 72 hrs by CCK8 assay; type: functional, cell-based; settings: PC-3, 72 h
MCF7 = assay: Antiproliferative activity against human MCF7 cells assessed as inhibition of cell growth incubated for 72 hrs by CCK8 assay; type: functional, cell-based; settings: MCF7, 72 h
MDA-MB-231 = assay: Antiproliferative activity against human MDA-MB-231 cells assessed as inhibition of cell growth incubated for 72 hrs by CCK8 assay; type: functional, cell-based; settings: MDA-MB-231, 72 h
RPMI-8226 = assay: Antiproliferative activity against human RPMI-8226 cells assessed as inhibition of cell growth incubated for 72 hrs by CCK8 assay; type: functional, cell-based; settings: RPMI-8226, 72 h
U-251 = assay: Antiproliferative activity against human U-251 cells assessed as inhibition of cell growth incubated for 72 hrs by CCK8 assay; type: functional, cell-based; settings: U-251, 72 h
MOLT-4 = assay: Antiproliferative activity against human MOLT-4 cells assessed as inhibition of cell growth incubated for 72 hrs by CCK8 assay; type: functional, cell-based; settings: MOLT-4, 72 h
MGC-803 [5] = assay: Induction of apoptosis in human MGC-803 cells assessed as viable cells at 2 uM incubated for 36 hrs by annexin V-FITC based flow cytometry analysis (reference value: 94.51 %); type: functional; settings: read-out: Activity
MGC-803 [6] = assay: Induction of apoptosis in human MGC-803 cells assessed as early apoptotic cells at 2 uM incubated for 36 hrs by annexin V-FITC based flow cytometry analysis (reference value: 2.49 %); type: functional
MGC-803 [7] = assay: Induction of apoptosis in human MGC-803 cells assessed as late apoptotic cells at 2 uM incubated for 36 hrs by annexin V-FITC based flow cytometry analysis (reference value: 2.61 %); type: functional
MGC-803 [8] = assay: Induction of apoptosis in human MGC-803 cells assessed as viable cells at 4 uM incubated for 36 hrs by annexin V-FITC based flow cytometry analysis (reference value: 94.51 %); type: functional; settings: read-out: Activity
MGC-803 [9] = assay: Induction of apoptosis in human MGC-803 cells assessed as late apoptotic cells at 4 uM incubated for 36 hrs by annexin V-FITC based flow cytometry analysis (reference value: 2.61 %); type: functional
MGC-803 [10] = assay: Induction of apoptosis in human MGC-803 cells assessed as necrotic cells at 4 uM incubated for 36 hrs by annexin V-FITC based flow cytometry analysis (reference value: […]); type: functional
MGC-803 [11] = assay: Induction of apoptosis in human MGC-803 cells assessed as viable cells at 8 uM incubated for 36 hrs by annexin V-FITC based flow cytometry analysis (reference value: 94.51 %); type: functional; settings: read-out: Activity
MGC-803 [12] = assay: Induction of apoptosis in human MGC-803 cells assessed as late apoptotic cells at 8 uM incubated for 36 hrs by annexin V-FITC based flow cytometry analysis (reference value: 2.61 %); type: functional
MGC-803 [13] = assay: Induction of apoptosis in human MGC-803 cells assessed as necrotic cells at 8 uM incubated for 36 hrs by annexin V-FITC based flow cytometry analysis (reference value: […]); type: functional
MGC-803 [14] = assay: Inhibition of cell migration in human MGC-803 cells at 2 to 8 uM incubated for 24 hrs by crystal violet staining based transwell migration assay; type: functional; settings: dose 2-8 µM
MGC-803 [15] = assay: Inhibition of cell invasion in human MGC-803 cells at 2 to 8 uM incubated for 24 hrs by microscopic analysis; type: functional, cell-based; settings: dose 2-8 µM
MGC-803 [16] = assay: Antimetastatic activity against human MGC-803 cells assessed as […] of E-cadherin expression in at 2 to 8 uM by Western blot analysis; type: functional, cell-based; settings: dose 2-8 µM
MGC-803 [17] = assay: Downregulation of PI3Kalpha protein expression in human MG C-803 cells at 2 to 8 uM by Western blotting analysis; type: functional, cell-based; settings: dose 2-8 µM
MGC-803 [18] = assay: Inhibition of PI3K signalling pathway in human MGC-803 cells assessed as reduction in pAKT level at 2 to 8 uM by Western blotting analysis; type: cell-based; settings: dose 2-8 µM
MGC-803 [19] = assay: Inhibition of PI3K signalling pathway in human MGC-803 cells assessed as reduction in P70S6K phosphorylation at 2 to 8 uM by Western blotting analysis; type: cell-based; settings: dose 2-8 µM
[20] = Half life in Sprague-Dawley rat at 10 mg/kg, po measured after 24 hrs; type: ADME, organism-based; settings: in vivo
[21] = Tmax in Sprague-Dawley rat at 1 mg/kg, iv measured after 24 hrs; type: ADME, organism-based; settings: in vivo
[22] = Tmax in Sprague-Dawley rat at 10 mg/kg, po measured after 24 hrs; type: ADME, organism-based; settings: in vivo
[23] = Cmax in Sprague-Dawley rat at 1 mg/kg, iv measured after 24 hrs; type: ADME, organism-based; parameters: time 24 hrs, dose 1 mg/kg, route iv; settings: in vivo
[24] = AUC (0 to t) in Sprague-Dawley rat at 10 mg/kg, po measured after 24 hrs; type: ADME, organism-based; parameters: dose 10 mg/kg, time 24 hrs, route po; settings: in vivo
[25] = AUC (0 to infinitive) in Sprague-Dawley rat at 10 mg/kg, po measured after 24 hrs; type: ADME, organism-based; parameters: dose 10 mg/kg, time 24 hrs, route po; settings: in vivo
[26] = Clearance in Sprague-Dawley rat at 1 mg/kg, iv measured after 24 hrs; type: ADME, organism-based; settings: in vivo
[27] = Oral bioavailability in Sprague-Dawley rat at 10 mg/kg measured after 24 hrs; type: ADME, organism-based; settings: in vivo
MGC-803 [28] = assay: Antitumor activity against human MGC-803 cells xenografted in BALB/c nude mouse assessed as reduction in tumor volume at 30 mg/kg, po administered every day for 3 weeks by vernier caliper method; type: functional, organism-based
MGC-803 [29] = assay: Antitumor activity against human MGC-803 cells xenografted in BALB/c nude mouse assessed as reduction in tumor volume at 30 mg/kg, po administered every day for 3 weeks in presence of taxol by vernier caliper method; type: functional, organism-based
MGC-803 [30] = assay: Antitumor activity against human MGC-803 cells xenografted in BALB/c nude mouse assessed as tumor growth inhibition at 10 mg/kg, ip administered every day for 3 weeks; type: functional; settings: MGC-803, 504 h, read-out: TGI
MGC-803 [31] = assay: Antitumor activity against human MGC-803 cells xenografted in BALB/c nude mouse assessed as tumor growth inhibition at 30 mg/kg, po administered every day for 3 weeks in presence of taxol; type: functional; settings: MGC-803, 504 h, read-out: TGI
[32] = Toxicity in BALB/c mouse xenografted with human MG C-803cells assessed as effect on body weight at 10 mg/kg, IP administered every day for 3 week; type: organism-based; settings: in vivo, 504 h, time 3 weeks
[33] = Toxicity in BALB/c mouse xenografted with human MG C-803cells assessed as effect on body weight at 30 mg/kg, po administered every day for 3 week in presence of taxol; type: organism-based; settings: in vivo, 504 h, time 3 weeks

Phosphatidylinositol 4,5-bisphosphate 3-kinase catalytic subunit beta isoform, sequence (P42338 whole entry, canonical isoform): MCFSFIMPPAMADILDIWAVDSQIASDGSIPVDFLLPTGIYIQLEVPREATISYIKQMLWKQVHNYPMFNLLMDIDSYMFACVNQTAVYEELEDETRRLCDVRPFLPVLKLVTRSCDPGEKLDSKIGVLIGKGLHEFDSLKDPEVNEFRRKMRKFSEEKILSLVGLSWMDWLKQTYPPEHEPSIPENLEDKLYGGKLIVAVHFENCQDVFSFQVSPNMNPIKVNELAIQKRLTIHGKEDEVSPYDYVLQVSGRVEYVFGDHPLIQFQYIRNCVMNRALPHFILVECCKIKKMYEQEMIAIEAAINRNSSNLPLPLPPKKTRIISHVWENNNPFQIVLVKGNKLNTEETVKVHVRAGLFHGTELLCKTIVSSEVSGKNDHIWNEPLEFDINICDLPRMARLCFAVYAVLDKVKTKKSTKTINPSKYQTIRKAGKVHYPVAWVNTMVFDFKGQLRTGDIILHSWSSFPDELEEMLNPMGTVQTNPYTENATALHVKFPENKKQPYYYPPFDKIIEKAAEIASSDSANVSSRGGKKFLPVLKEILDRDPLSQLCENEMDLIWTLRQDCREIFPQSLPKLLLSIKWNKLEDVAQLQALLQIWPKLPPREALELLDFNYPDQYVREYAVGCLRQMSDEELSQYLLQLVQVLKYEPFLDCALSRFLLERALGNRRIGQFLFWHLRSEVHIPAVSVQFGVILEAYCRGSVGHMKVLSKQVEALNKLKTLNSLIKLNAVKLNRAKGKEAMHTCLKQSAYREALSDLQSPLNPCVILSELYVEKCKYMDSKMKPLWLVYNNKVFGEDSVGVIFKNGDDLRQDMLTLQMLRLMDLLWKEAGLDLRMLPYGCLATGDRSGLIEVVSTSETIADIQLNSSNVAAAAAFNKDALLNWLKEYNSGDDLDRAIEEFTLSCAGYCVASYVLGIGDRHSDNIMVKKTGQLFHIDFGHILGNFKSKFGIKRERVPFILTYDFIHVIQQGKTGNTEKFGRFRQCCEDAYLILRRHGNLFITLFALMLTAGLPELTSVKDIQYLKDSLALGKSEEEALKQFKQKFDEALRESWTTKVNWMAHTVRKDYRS

For `Nc1nc2cc(-c3nc(N4CCOCC4)nc(N4CCOCC4)n3)ccc2o1`, the IC50 [1] was 146 nM, the Ratio IC50 (Homo sapiens [2]) was 33 and the Ratio IC50 (Homo sapiens [3]) was 34. For the same compound, the IC50 (MGC-803 [4]) was 430 nM, the IC50 (PC-3) was 430 nM and the IC50 (MCF7) was 430 nM. The IC50 (MDA-MB-231) was 430 nM, the IC50 (RPMI-8226) was 430 nM and the IC50 (U-251) was 430 nM. It also gave an IC50 (MOLT-4) of 430 nM, a viability at 2 µM (MGC-803 [5]) of 87% and an Activity (MGC-803 [6]) of 7.52%. For the same compound, the Activity (MGC-803 [7]) was 4.55%, the viability at 4 µM (MGC-803 [8]) was 62.6% and the Activity (MGC-803 [9]) was 5.01%. For the same compound, the Activity (MGC-803 [10]) was 1.11%, the viability at 8 µM (MGC-803 [11]) was 37.2% and the Activity (MGC-803 [12]) was 3.81%. The Activity (MGC-803 [13]) was 1.08%, the inhibition (MGC-803 [14]) was “Active” and the inhibition (MGC-803 [15]) was “Active”. The inhibition (MGC-803 [16]) was “Active”, the inhibition (MGC-803 [17]) was “Active” and the inhibition (MGC-803 [18]) was “Active”. For the same compound, the inhibition (MGC-803 [19]) was “Active”, the half-life [20] was > 10 h and the Tmax [21] was 10.8 s. For the same compound, the Tmax [22] was 9.33 h, the Cmax [23] was 455 ng/mL and the AUC(0-t) at 24 h [24] was 36700 ng·h/mL. It also gave an AUC(0-inf) [25] of 38100 ng·h/mL, a clearance [26] of 5.72 mL/min/kg and a bioavailability [27] of 130%. For the same compound, the Activity (MGC-803 [28]) was “Active”, the Activity (MGC-803 [29]) was “Active” and the inhibition in vivo at 10 mg/kg (MGC-803 [30]) was 41.5%. The inhibition in vivo at 30 mg/kg (MGC-803 [31]) was 63.9%, the Activity [32] was “Non-Toxic” and the Activity [33] was “Non-Toxic”.
